Experimental data: US9850273B2, “Combination of estrogens plus antiprogestins with significant partial agonistic effect as an effective treatment of menopausal symptoms and for prevention of the occurrence of breast cancer” (Evestra, Inc., priority 2014, dated 2017)
Like-named read-outs stand apart in the source and are kept apart here.

What was measured:
progesterone receptor [1] = target: T1, progesterone receptor (Homo sapiens, UniProt P06401); assay: PR transactivation assay, antagonistic activity (PR luciferase reporter); assay type: cell-based; conditions: for Ratio of IC50's: PR agonism / PR antagonism
T1 sequence (P06401 165-933 limits assumed): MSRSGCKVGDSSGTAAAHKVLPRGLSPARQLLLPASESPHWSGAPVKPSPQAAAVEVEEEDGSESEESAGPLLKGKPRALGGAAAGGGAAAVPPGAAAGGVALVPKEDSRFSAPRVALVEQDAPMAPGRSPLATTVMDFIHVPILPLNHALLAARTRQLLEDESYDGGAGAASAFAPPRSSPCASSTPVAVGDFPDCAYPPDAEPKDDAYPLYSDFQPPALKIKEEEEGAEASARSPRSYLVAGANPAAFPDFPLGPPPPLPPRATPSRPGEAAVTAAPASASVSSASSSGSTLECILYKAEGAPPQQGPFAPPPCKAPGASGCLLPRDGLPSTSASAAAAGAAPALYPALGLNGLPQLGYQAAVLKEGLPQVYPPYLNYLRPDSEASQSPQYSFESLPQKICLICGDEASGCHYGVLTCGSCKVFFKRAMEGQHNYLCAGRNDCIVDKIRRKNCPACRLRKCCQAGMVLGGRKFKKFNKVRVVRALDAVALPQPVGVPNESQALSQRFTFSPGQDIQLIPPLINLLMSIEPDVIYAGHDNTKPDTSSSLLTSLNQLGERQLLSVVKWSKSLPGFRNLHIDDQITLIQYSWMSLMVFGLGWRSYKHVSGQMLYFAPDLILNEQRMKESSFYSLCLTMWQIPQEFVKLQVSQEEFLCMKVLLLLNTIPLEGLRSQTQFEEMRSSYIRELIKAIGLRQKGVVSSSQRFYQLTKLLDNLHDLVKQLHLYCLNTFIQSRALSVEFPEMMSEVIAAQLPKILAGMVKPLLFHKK
Protocol: (§1) Transactivation Assay for Progesterone Agonist and Antagonistic Activity (See Table 1).
(§2) Experimental: PR transactivation studies was carried out in human breast cancer (T47D) cells, grown in RPMI medium without phenol red and 5% charcoal stripped fetal bovine serum, transiently transfected with PR luciferase reporter (CCS-6043L signal reporter assay kit, Qiagen). The cells were stimulated R5020 as PR agonist and treated in the presence or absence of the tested compounds for 24 hours.

progesterone receptor [2] = target: T2, progesterone receptor (Homo sapiens, UniProt P06401); assay: PR transactivation assay, agonistic activity (PR luciferase reporter); assay type: cell-based; conditions: T47D cells
T2 sequence (P06401 679-933 limits assumed): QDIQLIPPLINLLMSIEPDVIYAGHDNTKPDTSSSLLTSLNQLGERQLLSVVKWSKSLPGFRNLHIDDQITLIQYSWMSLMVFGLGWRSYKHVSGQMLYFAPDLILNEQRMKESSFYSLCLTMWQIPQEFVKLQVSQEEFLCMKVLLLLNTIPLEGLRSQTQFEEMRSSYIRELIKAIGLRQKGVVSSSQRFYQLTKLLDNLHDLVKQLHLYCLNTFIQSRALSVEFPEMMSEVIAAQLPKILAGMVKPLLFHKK
Protocol: as §1
as §2, with “hours. The effect was calculated using dual luciferase assay kit (Promega, WI)) based on RU486 as full antagonist and R5020 as agonist for progesterone receptor.” for “hours.”

guinea pig = assay: Guinea pig model (ovulation inhibition, uterine weight, vagina, ovary, classification); assay type: in vivo; conditions: for Classification: guinea pig model; for ER-/PR balance vagina. / Ovary (CL): at max. dose (10.mg/day s.c.); for Ovary (CL): CL = corpora lutea
[3] = system: estradiol-primed immature female rabbits; assay: McPhail and anti-McPhail tests in rabbits; assay type: in vivo, rabbit; conditions: for antiprogestational activity (anti-McPhail test): immature female rabbit
Text: The McPhail test in the immature female rabbit is a well-established model to test progestatational and antiprogestational activity [McPhail 1934).

[4] = T47D cells, stimulant R5020, read-out: IC50 Average of 2 expts
[5] = Table 2 summary, read-out: PR antagonism (IC50)
[6] = stimulant R5020, read-out: EC50
[7] = estradiol-primed immature female rabbit

| SMILES | Ratio of IC50's (progesterone receptor [1]) | Antagonist rel to RU486 (%) (progesterone receptor [1]; T47D cells, stimulant R5020) | IC50 (progesterone receptor [1]; [4]) [nM] | IC50 (progesterone receptor [1]; [5]) [nM] | Agonist rel to R5020 (%) (progesterone receptor [2]) | EC50 (progesterone receptor [2]; [6]) [nM] | Classification (guinea pig) | Uterine Weight at max. dose (10.mg/day s.c.) (guinea pig; guinea pig) | ER-/PR balance vagina. (guinea pig; guinea pig) | Ovary (CL) (guinea pig; guinea pig) | ER-/PR balance vagina.: dose at which the dominance is seen (guinea pig; guinea pig) | progestational activity (McPhail test) [3, 7] | antiprogestational activity (anti-McPhail test) [3] | Ovulation Inhibition (guinea pig; guinea pig) | progestational activity relative to CDB 2914 ([3]; assumed from McPhail test) | EC50 (progesterone receptor [2]; control compound R5020, read-out: Control EC50) [nM] | progestational activity (McPhail test) ([3]; dose of 3 mg/animal/day) |
| --- | --- | --- | --- | --- | --- | --- | --- | --- | --- | --- | --- | --- | --- | --- | --- | --- | --- |
| CC(=O)C1[C@H](C)CC2C3CCC4=CC(=O)CCC4=C3[C@@H](c3ccc(-c4cccnc4)cc3)C[C@@]21C (stereo partly drawn) [EC348, 11β-{4′-[3′-pyridinyl)phenyl}-16α-methyl-19-norpregna-4,9-diene-3,20-dione] | 11.8 | 292.7 | 0.39 | 0.39 | 7.0 | 4.61 | mesoprogestin | 1.01 | PR-domin | degenerated |  |  |  |  |  |  |  |
| CC[C@@H]1CC2C3CCC4=CC(=O)CCC4=C3[C@@H](c3ccc(-n4ccnc4)cc3)C[C@]2(C)C1C(C)=O (stereo partly drawn) [EC346, 11β-{4′-[1′ imidazolyl)phenyl}-16α-ethyl-19-norpregna-4,9-diene-3,20-dione] |  | 378 | 0.3 |  | 0.32 |  | mesoprogestin | 0.8 | PR-domin | degenerated |  |  |  |  |  |  |  |
| C=C[C@@H]1CC2C3CCC4=CC(=O)CCC4=C3[C@@H](c3ccc(-c4ccoc4)cc3)C[C@]2(C)C1C(C)=O (stereo partly drawn) [EC345, 11β-{4′-[3′-furanyl)phenyl}-16α-ethenyl-19-norpregna-4,9-diene-3,20-dione] |  | 120 | 1 |  | 0.65 | 49 |  |  |  |  |  |  |  |  |  |  |  |
| CC#C[C@]1(O)CC[C@H]2[C@@H]3CCC4=CC(=O)CCC4=C3[C@@H](c3ccc(N(C)C)cc3)C[C@@]21C [RU-486, reference compound] |  |  |  |  |  |  |  | (1.26) |  |  | ≧1.0 mg |  |  |  |  |  |  |
| COC[C@]1(OC)CC[C@H]2[C@@H]3CCC4=CC(=O)CCC4=C3[C@@H](c3ccc(/C=N/O)cc3)C[C@@]21C [ASOPRISNIL, reference compound] |  |  | 0.62 | 0.62 |  | 4.9 |  |  |  |  |  |  |  |  |  |  |  |
| COCC(=O)[C@@]1(OC(C)=O)CC[C@H]2[C@@H]3CCC4=CC(=O)CCC4=C3[C@@H](c3ccc(N(C)C)cc3)C[C@@]21C [CDB-4124, reference compound] | 30.7 | 300 | 0.7 | 0.7 | 1.4 | 25 | PR-antagonist | 1.41 | ER-domin. | deg. & |  | did not exhibit any progestational activity | higher antiprogestational activity than RU 486 | ≦10.0 mg |  |  |  |
| C[C@]12C[C@H](c3ccc(S(C)(=O)=O)cc3)C3=C4CCC(=O)C=C4CC[C@H]3[C@@H]1CC[C@@]2(O)C(F)(F)C(F)(F)F [BAY 1002670, reference compound] | 28.7 | 342.9 | 0.325 | 0.33 | 3.9 | 9.5 |  |  |  |  |  |  |  |  |  |  |  |
| CC[C@@H]1CC2C3CCC4=CC(=O)CCC4=C3[C@@H](c3ccc(-c4ccoc4)cc3)C[C@]2(C)C1C(C)=O (stereo partly drawn) [EC343, 11β-{4′-[3′-furanyl)phenyl}-16α-ethyl-19-norpregna-4,9-diene-3,20-dione] | 2.2 | 57.1 | 2.1 | 2.1 | 6.4 | 4.75 |  |  |  |  |  |  |  |  |  |  |  |
| C=C[C@@H]1CC2C3CCC4=CC(=O)CCC4=C3[C@@H](c3ccc(-c4cccnc4)cc3)C[C@]2(C)C1C(C)=O (stereo partly drawn) [EC344, 11β-{4′-[3′-pyridinyl)phenyl}-16α-ethenyl-19-norpregna-4,9-diene-3,20-dione] |  | 324 | 0.35 |  | 0.32 |  |  |  |  |  |  |  |  |  |  |  |  |
| C[C@]12C[C@H](c3ccc(-n4ccnc4)cc3)C3=C4CCC(=O)C=C4CCC3C1CC[C@@]2(O)C(F)(F)C(F)(F)F (stereo partly drawn) [EC-317] | 217.3 | 255.3 | 0.46 | 0.46 | 0.35 |  |  |  |  |  |  |  |  |  |  |  |  |
| C=C1CCOC12CCC1C3CCC4=CC(=O)CCC4=C3[C@@H](c3ccc(-n4ccnc4)cc3)C[C@@]12C (stereo partly drawn) [EC336] | 1.0 | 21.8 | 5 | 5 | 7 | 5 |  |  |  |  |  |  |  |  |  |  |  |
| C=C[C@@H]1CC2C3CCC4=CC(=O)CCC4=C3[C@@H](c3ccc(-n4ccnc4)cc3)C[C@]2(C)C1C(C)=O (stereo partly drawn) [EC347] | 3.5 | 120 | 0.95 | 0.95 | 9.7 | 3.4 | mesoprogestin | 1.01 | PR-domin | degenerated |  |  |  |  |  |  |  |
| C[C@]12C[C@H](c3ccc(-c4cccnc4)cc3)C3=C4CCC(=O)C=C4CCC3C1CCC21OCCC1=C(F)F (stereo partly drawn) [EC-312] | 81.7 | 160 | 0.625 | 0.63 | 0.73 | 51.5 | mesoprogestin | 1.03 | PR-domin. | degenerated | ≧0.1 mg | active both as a progestin agonist and antagonist | active both as a progestin agonist and antagonist |  | more than ten-fold higher |  |  |
| CCC(=O)[C@@]1(C)CC[C@H]2[C@@H]3CCC4=CC(=O)CCC4=C3CC[C@@]21C [R5020, reference compound] |  |  |  |  |  |  |  |  |  |  |  |  |  |  |  | 0.35 |  |
| CC[C@@H]1CC2C3CCC4=CC(=O)CCC4=C3[C@@H](c3ccc(-c4cccnc4)cc3)C[C@]2(C)C1C(C)=O (stereo partly drawn) [EC-342, 11β-{4′-[3′-pyridinyl)phenyl}-16α-ethyl-19-norpregna-4,9-diene-3,20-dione] | 5.7 | 120 | 0.95 | 0.95 | 7 | 5.15 | mesoprogestin | 0.86 | PR-domin | degenerated |  |  |  |  |  |  |  |
| CC(=O)O[C@]1(C(C)=O)CC[C@H]2[C@@H]3CCC4=CC(=O)CCC4=C3[C@@H](c3ccc(N(C)C)cc3)C[C@@]21C [CDB-2914, reference compound] | 38.4 | 120 | 0.65 | 0.65 | 1.5 | 21.5 | blunted PR- | (1.01) | ER-domin. | degenerated |  |  |  |  |  |  | didn't show any activity at all |
